Data on three compounds can be found in patent publication US9963433B2, “Anticancer drugs including the chemical structures of an androgen receptor ligand and a histone deacetylase inhibitor” (Wayne State University, priority 2016, dated 2018).

Experiment [1] deals with HDACs from Hela cell nuclear extract. The class given is biochemical. To be noted: HeLa cell nuclear extract; tested at 10 μM and 25 μM; FIG. 2B. As for the experimental part: (§1) FIGS. 2A-2F show measurement of intrinsic and in situ HDACi activities. […] IC50 values were calculated from nonlinear regression plots using GraphPad Prism5 software. […] Recombinant HDAC6 was incubated with each drug at the indicated concentrations. IC50 values were calculated from nonlinear regression plots using GraphPad Prism5 software.
(§2) HDAC activity assay. In vitro HDAC inhibition was measured by using the HDAC fluorimetric assay/drug discovery Kit (Enzo Life Sciences, BML-AK500) and the HDAC6 fluorometric drug discovery kit (Enzo Life Sciences, BML-AK516) following the manufacturer's protocols and instructions. IC50 values were calculated from nonlinear […] plots using GraphPad Prism5 software.
(§3) HDAC1 and HDAC2 are enriched in nuclear extracts whereas HDAC6 is a cytosolic enzyme that is the principal modulator of the acetylation status of Hsp90. […] Again, TSA served as the positive control in FIG. 2D.

The target in another experiment is T1, human recombinant HDAC6 (Homo sapiens, UniProt Q9UBN7).
T1 construct: purchased Enzo Life Sciences BML-AK516
T1 sequence (Q9UBN7 1-1215): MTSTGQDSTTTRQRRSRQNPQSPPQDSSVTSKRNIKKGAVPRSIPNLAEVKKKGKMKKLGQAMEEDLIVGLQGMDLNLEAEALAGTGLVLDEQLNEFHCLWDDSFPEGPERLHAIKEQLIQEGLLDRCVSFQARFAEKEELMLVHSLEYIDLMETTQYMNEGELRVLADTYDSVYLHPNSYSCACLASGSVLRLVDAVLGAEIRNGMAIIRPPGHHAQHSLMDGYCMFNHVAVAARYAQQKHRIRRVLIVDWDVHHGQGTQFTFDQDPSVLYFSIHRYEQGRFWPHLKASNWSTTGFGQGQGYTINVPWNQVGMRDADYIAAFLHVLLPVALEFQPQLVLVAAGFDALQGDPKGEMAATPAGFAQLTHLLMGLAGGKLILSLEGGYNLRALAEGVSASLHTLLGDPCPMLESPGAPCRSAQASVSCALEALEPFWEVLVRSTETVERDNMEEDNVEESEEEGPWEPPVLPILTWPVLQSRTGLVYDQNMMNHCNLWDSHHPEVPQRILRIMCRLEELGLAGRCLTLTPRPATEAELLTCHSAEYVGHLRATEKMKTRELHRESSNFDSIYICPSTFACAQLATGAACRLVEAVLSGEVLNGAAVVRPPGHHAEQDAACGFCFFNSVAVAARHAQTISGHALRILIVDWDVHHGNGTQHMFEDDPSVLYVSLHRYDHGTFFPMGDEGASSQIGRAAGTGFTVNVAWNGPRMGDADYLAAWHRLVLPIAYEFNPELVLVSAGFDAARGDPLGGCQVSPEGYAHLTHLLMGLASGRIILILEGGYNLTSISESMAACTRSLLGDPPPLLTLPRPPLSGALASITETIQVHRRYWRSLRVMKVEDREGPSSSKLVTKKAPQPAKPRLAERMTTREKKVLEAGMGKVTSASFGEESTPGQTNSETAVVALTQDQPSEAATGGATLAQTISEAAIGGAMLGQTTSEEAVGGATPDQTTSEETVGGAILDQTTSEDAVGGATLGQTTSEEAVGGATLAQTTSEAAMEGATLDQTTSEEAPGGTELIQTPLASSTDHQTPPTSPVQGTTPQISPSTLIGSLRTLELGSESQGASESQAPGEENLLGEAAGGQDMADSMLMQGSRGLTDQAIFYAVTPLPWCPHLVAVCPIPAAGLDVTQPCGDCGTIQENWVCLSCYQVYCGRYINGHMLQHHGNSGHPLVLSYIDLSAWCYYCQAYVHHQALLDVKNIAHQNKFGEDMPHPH
The experiment can be described thus: HDAC6 fluorometric assay, recombinant enzyme. Format: biochemical. The following applies: tested at 10 μM and 25 μM; FIG. 2D. As for the experimental part:
as §1, §2, §3

For experiment [2], the system named is KLK3 mRNA (AR target gene) in C4-2 cells. The experiment can be described thus: Inhibition of R1881 activation of KLK3 mRNA in C4-2 cells. Format: cell-based. The following applies: hormone depleted 96 h, R1881 1 nM, compound 1-10 μM, 48 h, FIG. 3A. The method, then: (§4) Cell Culture and Reagents. LNCaP and 22Rv1 cell lines were from American Type Culture Collection (Manassas, Va.). C4-2 cells were kindly provided by Dr. Edwin Sanchez (University of Toledo). […] R1881 was kindly provided by Dr. Stephan Patrick (Karmanos Cancer Institute). All experiments were conducted using phenol-red free growth media.
(§5) RNA isolation, Reverse Transcription, and Real Time PCR. Total RNA was isolated from cells using the RNeasy Mini Kit (Qiagen). Reverse transcription PCR was then performed using 500 ng of total RNA with random primers and using the high-capacity complementary DNA Archive kit (Applied Biosystems). The complementary DNA from this reaction was measured using quantitative real time PCR using the StepONE Plus Real Time PCR system (Life Technologies Corporation, Carlsbad, Calif.). All reactions were performed in triplicate and normalized to glyceraldehyde-3-phosphate-dehydrogenase values in the same samples.

For experiment [3], the system named is TMPRSS2 mRNA (AR target gene) in C4-2 cells. Nature of the experiment: Inhibition of R1881 activation of TMPRSS2 mRNA in C4-2 cells. To be noted: hormone depleted 96 h, R1881 1 nM, compound 1-10 μM, 48 h, FIG. 3B. The class given is cell-based. The method, then:
as §4, §5

Another experiment deals with DLC1 mRNA in LNCaP cells. Nature of the experiment: In situ HDACi activity: DLC1 mRNA in LNCaP cells. The class given is cell-based. To be noted: 10 μM, 48 h, normalized to GAPDH mRNA, FIG. 2E. As for the experimental part:
(§6) FIGS. 2A-2F show measurement of intrinsic and in situ HDACi activities. […]. IC50 values were calculated from nonlinear regression plots using GraphPad Prism5 software. (2B) Enz, 1002 and 3-52 were tested against HeLa cell nuclear extract at 10 μM and 25 μM and TSA (1 μM) was used as positive control. […] Recombinant HDAC6 was incubated with each drug at the indicated concentrations. IC50 values were calculated from nonlinear regression plots using GraphPad Prism5 software. (2D) Enz, 1002 and 3-52 were tested against recombinant HDAC6 at 10 μM and 25 μM and TSA (1 μM) was used as positive control. […]
(§7) Cell Culture and Reagents. LNCaP and 22Rv1 cell lines were from American Type Culture Collection (Manassas, Va.). C4-2 cells were kindly provided by Dr. Edwin Sanchez (University of Toledo). LNCaP and C4-2 cells were routinely grown at 37° C. in 5% CO2 in RPMI 1640 medium supplemented with 10% FBS (Invitrogen); 100 units/ml penicillin, 100 μg/ml streptomycin, 2 mM L-glutamine mixture (Invitrogen); and sodium pyruvate (1 mM) (Invitrogen). 22Rv1 cells were grown in RPMI 1640 medium supplemented with 10% FBS (Invitrogen); 100 units/ml penicillin, 100 μg/ml streptomycin, 2 mM L-glutamine mixture (Invitrogen). Affinity-purified rabbit anti-human antibody to AR (sc-816) and mouse anti-human antibody to GAPDH (sc-47724) were purchased from Santa Cruz Biotechnology (Santa Cruz, Calif.). Affinity-purified rabbit anti-human antibody to Hsp90 (C45G5) #4877 and rabbit anti-human antibody to acetylated lysine #9441 were purchased from Cell Signaling Technology. R1881 was kindly provided by Dr. Stephan Patrick (Karmanos Cancer Institute). All experiments were conducted using phenol-red free growth media. For hormone depletion, cells were grown in phenol-red free RPMI 1640 medium supplemented with 10% charcoal stripped FBS (Sigma-Aldrich) which was heat inactivated at 56° C. for thirty minutes, and a mixture of 100 units/ml penicillin, 100 μg/ml streptomycin and 2 mM L-glutamine for 96 h.
as §5, with “samples. All primers and Taqman probes were purchased from the applied Biosystems inventory (Invitrogen) (Patki et al., 2015).” for “samples.”
. […]

The subject of the next experiment is DLC1 mRNA in C4-2 cells. The experiment can be described thus: In situ HDACi activity: DLC1 mRNA in C4-2 cells. Format: cell-based. To be noted: 48 h, normalized to GAPDH mRNA, FIG. 2F. As for the experimental part:
as §6, §7
as §5, with “samples. All primers and Taqman probes were purchased from the applied Biosystems inventory (Invitrogen) (Patki et al., 2015).” for “samples.”
. […]

A further experiment deals with C4-2 cells. The experiment can be described thus: MTT cell viability assay, C4-2 cells. Format: cell-based. To be noted: C4-2 cells; 5 μM; MTT Day 3 relative to Day 0; FIG. 6C. As for the experimental part:
(6A) C4-2 cells were seeded in 96-well plates and 24 h later, they were treated with the indicated compounds (0.1 μM-10 μM) or with vehicle (DMSO). Cell viability was measured by the MTT assay on Days 0 and 3 of treatment. EC50 values were calculated from nonlinear regression plots using GraphPad Prism5 software. […] Cell viability was measured by the MTT assay on Days 0 and 3 of treatment. […] Cell viability was measured by the MTT assay on Days 0 and 3 of treatment. […] (6D) 22Rv1 cells were infected with AR shRNA lentivirus, or control shRNA. 72 h after infection, cells were plated and viable cells were measured by the MTT assay on the indicated days (6D, bottom). Cells were also harvested for western blot analysis and probed with antibody to AR, which was also reactive with the AR splice variant AR-V7 (6D, top). (6E) 22Rv1 cells were seeded in 96-well plates and 24 h later, they were treated with the indicated compounds (0.1 μM-10 μM) or with vehicle (DMSO). Cell viability was measured by the MTT assay on Days 0 and 3 of treatment. EC50 values were calculated from nonlinear regression plots using GraphPad Prism5 software.
Cell Proliferation Assay. Cells were trypsinized and 6000 cells/well were seeded in 96-well plates coated with poly-D-lysine. The cells were seeded in phenol red-free medium supplemented with 10% FBS, 100 units/ml penicillin, 100 μg/ml streptomycin, 2 mM L-glutamine mixture and sodium pyruvate (1 mM) for C4-2 cells and phenol red-free medium supplemented with 10% FBS, 100 units/ml penicillin, 100 μg/ml streptomycin and 2 mM L-glutamine mixture for 22Rv1 cells. The cells were grown at 37° C. in 5% CO2. Twenty four hours after seeding in the 96-well plates, the cells were treated with indicated compound or DMSO (vehicle). The culture medium was not changed during the time course of the assay. On Day zero and on Day 3, cell viability was determined using the MTT assay. MTT (10 μL, 5 mg/mL) was added to each well and incubated for 2 h at 37° C. The formazan crystal sediments were dissolved in 100 μL of DMSO, and the absorbance at 570 nm was measured using the BioTek Synergy 2 Microplate Reader (BioTek, Winooski, Vt.). […] IC50 values were calculated from nonlinear […] plots using GraphPad Prism5 software.
A general note: Tetrazolium dyes change colour on reduction, which living cells bring about.

Another experiment relates to p21 mRNA in C4-2 cells. Nature of the experiment: p21 mRNA induction in C4-2 cells. The following applies: 48 h, FIG. 5B.
A further experiment has as its system p21 mRNA in LNCaP cells. Nature of the experiment: p21 mRNA induction in LNCaP cells. To be noted: 10 μM, 48 h, FIG. 5A.
In experiment [4] the test system is AR chromatin association at KLK3 ARE enhancer elements. The experiment can be described thus: ChIP of AR at KLK3 enhancer in C4-2 cells. To be noted: compound 10 μM, R1881 1 nM or 10 nM, 2 h, FIG. 3C.
Method: (3C) C4-2 cells plated in hormone-depleted medium were treated with either vehicle, R1881, or the indicated compound for 2 h. Cells were harvested and subjected to ChIP using AR antibody. Taqman probes targeting ARE enhancer elements associated with the KLK3 gene were used to quantify the immunoprecipitated chromatin.
Chromatin Immunoprecipitation (ChIP). […] The ChIP signals were measured by quantitative real time PCR analysis of the immunoprecipitated products.
As a target site for the ChIP assay, the well-established AR binding enhancer elements located 4 kb upstream of the transcription initiation site of the KLK3 gene was chosen.
A further experiment concerns Hsp90. The experiment can be described thus: Western blot of Hsp90 protein in C4-2 cells. To be noted: 1 μM to 10 μM, 24 h, relative to GAPDH, FIG. 4B. (In general: A western blot detects proteins with antibodies after separation by electrophoresis.)
Experiment [5] deals with 55 KDa polypeptide (putative Hsp90 fragment). Nature of the experiment: Western blot of acetylated lysine in C4-2 cells. To be noted: 24 h, acetylated lysine antibody, FIG. 4C.
Method: Cells were then harvested for western blot analysis using antibody to AR (4A), HSP90 (4B), Acetyl-Lysine (4C) or GAPDH (loading control). ImageJ software was used to determine the intensities of the bands relative to the vehicle control for each protein. The values were then divided by the values for GAPDH within the same samples.
Western Blot Analysis. Cells were washed once with phosphate buffered saline (PBS) and then lysed with RIPA buffer (150 mM NaCl, 1% Nonidet P-40, 0.5% sodium deoxycholate, 0.1% SDS, 50 mM Tris of pH 8.0) containing a protease inhibitor cocktail (Pierce, Thermo Fisher Scientific). The cell lysates were then incubated on ice for 40 minutes. Total protein concentrations were estimated using the Bradford Assay (Bio-Rad). Protein samples (10-40 ug) were heated at 95° C. for 5 minutes and resolved by electrophoresis on 8% polyacrylamide-SDS gels and electrophoretically transferred to PVDF membranes (Millipore, Billerica, Mass.). The membranes were then probed overnight at 4° C. with the appropriate primary antibody followed by the appropriate horseradish peroxidase-conjugated secondary antibody.

On to `COC(=O)CCCCCCNC(=O)c1ccc(N2C(=S)N(c3ccc(C#N)c(C(F)(F)F)c3)C(=O)C2(C)C)cc1F` [Compound 3-52, Methyl-7-(4-(3-(4-cyano-3-(trifluoromethyl)phenyl)-5,5-dimethyl-4-oxo-2-thioxoimidazolidin-1-yl)-2-fluorobenzamido)heptanoate], for which, in experiment [1], the “inhibition of nuclear HDAC activity” value is recorded as “did not inhibit nuclear HDAC activity even up to a concentration of 25 μM”. The “inhibitory activity against HDAC6” value on human recombinant HDAC6 is reported as “did not show significant inhibitory activity”. Moreover, the “inhibition of activation of KLK3 by R1881” value in [2] is recorded as “comparable to Enz”. In [3], the “inhibition of activation of TMPRSS2 by R1881” value is “comparable to Enz”.
For `O=C(CCCCCCC(=O)Nc1ccccc1)NO` [SAHA, suberanilohydroxamic acid, reference compound], the “DLC1 mRNA expression” value with DLC1 mRNA in LNCaP cells and in the experiment with DLC1 mRNA in C4-2 cells was “strongly up-regulated” in each case. Moreover, the “cell death (viable cells below the number on Day 0)” value in the experiment with C4-2 cells is listed as “caused cell death”. Besides, the “p21 mRNA expression” value in the experiment with p21 mRNA in C4-2 cells and in the experiment on p21 mRNA in LNCaP cells was “induced p21 mRNA” each time. Moreover, the “chromatin association of AR (ChIP signal)” value in [4] was “basal ChIP signal”. Besides, in the experiment on Hsp90, the “Hsp90 protein level (degradation)” value is recorded as “a decrease in Hsp90 was evident at the higher doses”. The “hyper-acetylation of a 55 KDa polypeptide” value in experiment [5] is “hyper-acetylation of a 55 KDa polypeptide”.
Take `C[C@]1(O)CC[C@H]2[C@@H]3CCC4=CC(=O)CCC4=C3C=C[C@@]21C` [androgen, R1881]: in [4], the “chromatin association of AR (ChIP signal)” value is reported as “strongly stimulated chromatin association of AR”.
